Type in all cases: in vivo
The subject of assay [1] is Zea mays (corn), cv. 'Lorenzo'. Description: Post-emergence application of herbicide H3 (glufosinate-ammonium) and safener by the tank mix method: crop damage. As to conditions: safener 250 g a.i./ha + herbicide H3 (glufosinate-ammonium) 250 g a.i./ha, post-emergence tank mix; for Safener action as % damage reduction in crop plants: ZEAMA, versus herbicide alone; for % damage in ZEAMA: visual scoring four weeks after application. The source says: (§1) Seeds of various crop plants and weed species were sown in sandy loam soil in round plastic pots of a diameter of 13 cm and covered with a layer of sandy loam of a thickness of about 1 cm. The pots were placed in a greenhouse under favorable growth conditions for a duration of about two to three weeks, allowing the plants to reach a growth stage of 2 to 4 leaves. The herbicides, in the form of liquid (for example emulsion concentrates, aqueous solutions) or dry (for example water-dispersible powders) formulations, were diluted with deionized water to the required concentrations and applied to the green parts of the plants and the uncovered part of the surface of the soil with a spray bar using a water application rate of 300 liters per hectare. In the experiment shown below, the safeners were used as 20 percent strength water-dispersible powders and the herbicide glufosinate-ammonium as a commercial 20 percent strength aqueous surfactant-containing solution (results see table 1.2.2).
(§2) The pots were placed in a greenhouse under favorable growth conditions. Visual scoring of the herbicidal action was carried out four weeks after the herbicidal application. Evaluation was carried out on a percentage basis by comparison with untreated control plants (0%=no noticeable effect compared with the untreated plant, 100%=treated plant dies).

The next assay deals with Amaranthus retroflexus. Description: Post-emergence application of herbicide H3 (glufosinate-ammonium) and safener by the tank mix method: herbicidal action. The note with it: safener 250 g a.i./ha + herbicide H3 (glufosinate-ammonium) 250 g a.i./ha, post-emergence tank mix; four weeks.
Excerpt: as §1, §2

For the next assay, the system named is Chenopodium album. Description: Pre-emergence application of herbicide H1 (isoxaflutole) and safener by the tank mix method: herbicidal action. As to conditions: safener 250 g a.i./ha + herbicide H1 (isoxaflutole) 100 g a.i./ha, pre-emergence tank mix; four weeks. The method, then:
(§3) Seeds of various crop plants and weed species were sown in sandy loam soil in round plastic pots of a diameter of 13 cm and covered with a layer of sandy loam of a thickness of about 1 cm. Herbicides and safeners in the form of liquid (for example emulsion concentrates) or dry (for example water-dispersible powders) formulations were diluted with deionized water to the required concentrations and applied to the surface of the soil with a spray bar using a water application rate of 300 liters per hectare. In the experiment shown below, the safeners were used as 20 percent strength water-dispersible powders and the herbicide isoxaflutole was used as an aqueous suspension concentrate (see table 1.1.1). The pots were placed in a greenhouse under favorable growth conditions. Visual scoring of the herbicidal action was carried out four weeks after the herbicide application. Evaluation was carried out on a percentage basis by comparison with untreated control plants (0%=no noticeable effect compared with the untreated plant, 100%=treated plant dies).

In another assay the test system is Setaria viridis. The assay is described as above. The note with it: safener 250 g a.i./ha + herbicide H1 (isoxaflutole) 100 g a.i./ha, pre-emergence tank mix; four weeks. On the procedure:
as §3

The test system of assay [2] is Zea mays (corn), cv. 'Lorenzo'. Description: Pre-emergence application of herbicide H1 (isoxaflutole) and safener by the tank mix method: crop damage. As to conditions: safener 250 g a.i./ha + herbicide H1 (isoxaflutole) 100 g a.i./ha, pre-emergence tank mix; for Safener action as % damage reduction in crop plants: ZEAMA, versus herbicide alone; for % damage in ZEAMA: visual scoring four weeks after application, 0%=no effect, 100%=plant dies. The method, then: as §3

The subject of assay [3] is Zea mays (corn), cv. 'Lorenzo'. The experiment in a line: Post-emergence application of herbicide H2 (foramsulfuron) after seed dressing with safener. The note with it: seed dressing with safener 1 g a.i./kg of seed; for Safener action as % damage reduction in crop plants: ZEAMA, herbicide H2 (foramsulfuron) 40 g a.i./ha post-emergence, versus untreated seed; for % damage in ZEAMA: then herbicide H2 (foramsulfuron) 40 g a.i./ha post-emergence, four weeks. The method, then: The number of crop plant seeds required for each application rate of safener was calculated. Sufficient seeds were weighed-out into glass bottles having a screw-on lid. The volume of the glass bottles was approximately twice that of the seeds weighed out. The safeners were formulated as 20 percent strength water-dispersible powders. These formulations were weighed out to give the required application rates (g of a.i./kg of seed). The samples were added to the seed in the glass containers, and sufficient water to form a suitable seed dressing was then added. The glass bottles were closed and then mounted in an overhead shaker (which turns the bottles at moderate speed for a period of up to one hour) so that the seeds were uniformly covered with the seed dressing. The bottles were opened and the seed was ready for use in pre-emergence or post-emergence experiments, as described below. The seeds treated with safener and untreated seeds were sown in sandy loam soil in round plastic pots of a diameter of 13 cm and covered with a layer of sandy loam of a thickness of about 1 cm. The pots were placed in a greenhouse under favorable growth conditions for a period of about two to three weeks, allowing the plants to reach a growth stage of 2 to 4 leaves. The herbicides in the form of liquid (for example emulsion concentrates) or dry (for example water-dispersible powders) formulations were mixed with a standard additive (based on rapeseed oil methyl ester), diluted with deionized water to the required concentrations and applied to the green parts of the plants and the uncovered part of the soil surface with a spray bar using a water application rate of 300 liters per hectare. In the experiment shown below, the herbicide foramsulfuron was used as 20 percent strength water-dispersible powder (results see table 2.3.1). The pots were placed in a greenhouse under favorable growth conditions. Visual scoring of the herbicidal action was carried out four weeks after the herbicide application. Evaluation was carried out on a percentage basis by comparison with untreated control plants (0%=no noticeable effect compared with the untreated plant, 100%=treated plant dies).

For assay [4], the system named is Glycine max (soybean), cv. 'Lambert'. The experiment in a line: Pre-emergence application of herbicide H1 (isoxaflutole) after seed dressing with safener. As to conditions: seed dressing with safener 1 g a.i./kg of seed; for Safener action as % damage reduction in crop plants: GLXMA, herbicide H1 (isoxaflutole) 100 g a.i./ha pre-emergence, versus untreated seed; for % damage in GLXMA: then herbicide H1 (isoxaflutole) 100 g a.i./ha pre-emergence, four weeks. On the procedure: (§4) The number of crop plant seeds required for each application rate of safener was calculated. Sufficient seeds were weighed-out into glass bottles having a screw-on lid. The volume of the glass bottles was approximately twice that of the seeds weighed out.
(§5) The safeners were formulated as 20 percent strength water-dispersible powders. These formulations were weighed out to give the required application rates (g of a.i./kg of seed). The samples were added to the seed in the glass containers, and sufficient water to form a suitable seed dressing was then added. The glass bottles were closed and then mounted in an overhead shaker (which turns the bottles at moderate speed for a period of up to one hour) so that the seeds were uniformly covered with the seed dressing. The bottles were opened and the seed was ready for use in pre-emergence or post-emergence experiments, as described below.
(§6) The seeds which had been treated with safeners and untreated seeds as controls were sown in sandy loam soil in round plastic pots of a diameter of 13 cm and covered with a layer of sandy loam of a thickness of about 1 cm. The herbicides in the form of liquid (for example emulsion concentrates) or dry (for example water-dispersible powders) formulations were diluted with deionized water to the required concentrations and applied to the surface of the soil with a spray bar using a water application rate of 300 liters per hectare. In the two experiments shown below (results see tables 2.2.1 and 2.2.2), the herbicide isoxaflutole was used as an aqueous suspension concentrate.
(§7) The pots were placed in a greenhouse under favorable growth conditions. Visual scoring of the herbicidal action was carried out four weeks after the herbicide application. Evaluation was carried out on a percentage basis by comparison with untreated control plants (0%=no noticeable effect compared with the untreated plant, 100%=treated plant dies).

Assay [5] has as its system Zea mays (corn), cv. 'Lorenzo'. Described as above. As to conditions: seed dressing with safener 1 g a.i./kg of seed; for Safener action as % damage reduction in crop plants: ZEAMA, herbicide H1 (isoxaflutole) 100 g a.i./ha pre-emergence, versus untreated seed; for % damage in ZEAMA: then herbicide H1 (isoxaflutole) 100 g a.i./ha pre-emergence, four weeks. The method, then: as §4, §5, §6, §7

This is an account of results in patent publication US7838463B2, “Safeners based on acrylic-aliphatic carboxylic acid derivatives” (Bayer CropScience AG, priority 2003, dated 2010).

As for `O=C(O)C=Cc1ccccc1O` [Comp. 17, 2-hydroxycinnamic acid], the “Safener action as % damage reduction in crop plants” value was found to be 61% in assay [1]; 82% in assay [2]; 81% in assay [3]; 60% in assay [4]; 68% in assay [5]. Further, the “% damage in ZEAMA” value in assay [1] is recorded as 24%; in assay [2], 5%; in assay [3] it was 6%; in assay [5], 8%. Moreover, the “Herbicidal action as % damage in AMARE” value in the assay with Amaranthus retroflexus is 95%. In addition, the “Herbicidal action as % damage in CHEAL” value in the assay on Chenopodium album was 94%. In addition, in the assay with Setaria viridis, the “Herbicidal action as % damage in SETVI” value is on record as 96%. The “% damage in GLXMA” value in assay [4] was determined as 33%.

With `O=C(O)C=Cc1ccc(Cl)cc1Cl` [Comp. 155, 2,4-dichlorocinnamic acid], the “Safener action as % damage reduction in crop plants” value in assay [1] worked out at 66%; in assay [2], 74%; in assay [3], 88%; in assay [4] it was 64%; in assay [5], 72%. The “% damage in ZEAMA” value in assay [1] is 21%; in assay [2] it was 7%; in assay [3] it was 4%; in assay [5], 7%. Besides, the “Herbicidal action as % damage in AMARE” value in the assay on Amaranthus retroflexus was found to be 94%. In the assay with Chenopodium album, the “Herbicidal action as % damage in CHEAL” value is reported as 95%. The “Herbicidal action as % damage in SETVI” value in the assay on Setaria viridis amounted to 95%. Further, the “% damage in GLXMA” value in assay [4] is listed as 30%.
